Test system: human CD4+ T-cells
Test: I-MUNE assay: T-cell proliferation (tritiated thymidine) with dendritic cells and CD4+ T-cells
Assay type: cell-based
Details: approximately 5 Lf/mL

Substance: tetanus toxoid
- positive control proliferative response: robust positive control responses

Source: patent US20070025974A1, “Amylases producing an altered immunogenic response and methods of making and using the same” (priority 2003, published 2007)
